From publication PMC4850295, “Using a Genetically Encoded Sensor to Identify Inhibitors of Toxoplasma gondii Ca^2+ Signaling” (The Journal of Biological Chemistry, 2016)

What follows are compounds tested on T1, GCaMP5-expressing T. gondii. Conditions: 100 uM zaprinast stimulation; 10 min pretreatment; mean of two replicates; 0.23 h.
T1 construct: whole extracellular parasites expressing GCaMP5 Ca2+ sensor
Set-up: species or system GCaMP5-expressing Toxoplasma gondii, extracellular; GCaMP5 fluorescence (cytosolic Ca2+) after 100 uM zaprinast in compound-pretreated extracellular parasites, background-subtracted, relative to zaprinast alone
Method: GCaMP5-expressing parasites were suspended in Ringer's solution at 4 × 10^7 parasites/ml, and 50 μl of parasites were applied to each well of a 96-well plate (Costar, catalog no. 3631). […] Parasites were then treated with 100 μM zaprinast or 0.1% DMSO as a vehicle control and incubated at 37 °C with 5% CO2 for an additional 4 min before measuring fluorescence with excitation and emission wavelengths of 485 and 525 nm, respectively, on a SpectraMax M3 (Molecular Devices). Basal fluorescence, measured from untreated parasites, was subtracted from all values, and results were expressed as -fold change from parasites treated only with zaprinast. Z′ factors were determined from (i) parasites treated with zaprinast versus untreated parasites and (ii) parasites treated with a final concentration of 1 μM Cpd2 or a vehicle control followed by zaprinast, using the formula, Z′ = 1 − 3(σp + σn)/(|μp − μn|), where σp and σn indicate S.D. values of positive and negative controls, and μp and μn indicate the means of positive and negative controls, respectively. […] We predicted that the zaprinast response measured in GCaMP5-expressing parasites could form the basis for a phenotypic screen. Such a screen would benefit from the known importance of Ca^2+ signaling in parasite biology along with the reported success rate of cell-based phenotypic assays. We designed a screen wherein extracellular GCaMP5-expressing parasites were pretreated with compounds for 10 min before stimulation with zaprinast, and parasite fluorescence was measured 4 min later. We expected that compounds that interfered with the zaprinast response would reduce fluorescence. We calculated a Z′-factor for this screen to determine its dynamic range and suitability to high throughput screening. To do so, we compared zaprinast-treated parasites to untreated parasites or those pretreated with the PKG inhibitor Compound 2 (Cpd2) ([55]). […] We obtained the compound libraries published kinase inhibitor sets PKIS1 ([57]) and PKIS2 (unpublished), from GlaxoSmithKline and applied our phenotypic screen to the 823 ATP mimetics represented in these collections (Fig. 2B and supplemental Table S1). The compounds were screened at a single 10 μM dose with two biological replicates.

SMILES	fold change in fluorescence relative to zaprinast alone
NCC(NCc1ccc(-c2ccnc3[nH]ccc23)s1)c1ccccc1 (stereo not drawn) [GSK1321565A]	0.4604
NC(CNC(=O)c1cc(Br)c(-c2ccnc3[nH]ccc23)s1)c1ccccc1 (stereo not drawn) [GSK1322949A]	0.4024
NCC(NC(=O)c1cc(-c2cccnc2)c(-c2ccnc3[nH]ccc23)s1)c1ccccc1 (stereo not drawn) [GSK1323434A]	0.997
NCC(NC(=O)c1cc(-c2cn[nH]c2)c(-c2ccnc3[nH]ccc23)s1)c1ccccc1 (stereo not drawn) [GSK1325775A]	1.276
O=C(Nc1c(F)cccc1F)c1cc(C(=O)c2ccccc2F)c[nH]1 [GSK1326180A]	0.8808
CCCN1CCC(c2ccc(Nc3nc(Nc4cc(F)ccc4C(N)=O)c4cc[nH]c4n3)c(OC)c2)CC1 [GSK1326255A]	1.826
COc1ccc(CNC(=O)NC2CCN(c3ccnc(Nc4ccc(F)cc4)n3)C2)cc1 (stereo not drawn) [GSK1379706A]	0.6471
N#Cc1cccc(C(=O)NC2CCN(c3ccnc(Nc4ccc(F)cc4)n3)C2)c1 (stereo not drawn) [GSK1379708A]	1.095
CC(C(=O)NC1CCN(c2ccnc(Nc3ccc(F)cc3)n2)C1)c1ccc(Cl)cc1 (stereo not drawn) [GSK1379713A]	0.7096
COC(=O)C(Cc1ccccc1)NC(=O)NC1CCN(c2ccnc(Nc3ccc(F)cc3)n2)C1 (stereo not drawn) [GSK1379714A]	0.7659
CCCc1ccc(S(=O)(=O)NC2CCN(c3ccnc(Nc4ccc(F)cc4)n3)C2)cc1 (stereo not drawn) [GSK1379715A]	0.5743
O=C(NC1CCN(c2ccnc(Nc3ccc(F)cc3)n2)C1)c1cc2ccccc2s1 (stereo not drawn) [GSK1379716A]	1.103
Cn1cncc1C(=O)NC1CCN(c2ccnc(Nc3ccc(F)cc3)n2)C1 (stereo not drawn) [GSK1379717A]	1.089
Cc1ccc(C)c(NC(=O)NC2CCN(c3ccnc(Nc4ccc(F)cc4)n3)C2)c1 (stereo not drawn) [GSK1379720A]	1.268
COc1cccc(NC(=O)NC2CCN(c3ccnc(Nc4ccc(F)cc4)n3)C2)c1 (stereo not drawn) [GSK1379721A]	0.358
O=C(Nc1ccccc1F)NC1CCN(c2ccnc(Nc3ccc(F)cc3)n2)C1 (stereo not drawn) [GSK1379722A]	0.7204
COc1cccc(CNC(=O)NC2CCN(c3ccnc(Nc4ccc(F)cc4)n3)C2)c1 (stereo not drawn) [GSK1379723A]	0.5252
O=C(Nc1ccc2c(c1)OCO2)NC1CCN(c2ccnc(Nc3ccc(F)cc3)n2)C1 (stereo not drawn) [GSK1379724A]	0.9401
COC(=O)c1cccc(NC(=O)NC2CCN(c3ccnc(Nc4ccc(F)cc4)n3)C2)c1 (stereo not drawn) [GSK1379725A]	0.2001
COc1ccc(CNC(=O)NC2CCN(c3ccnc(Nc4ccc(OC)cc4)n3)C2)cc1 (stereo not drawn) [GSK1379727A]	1.253
COc1ccc(Nc2nccc(N3CCC(NS(=O)(=O)c4ccc(NC(C)=O)cc4)C3)n2)cc1 (stereo not drawn) [GSK1379729A]	1.531
COc1ccc(Nc2nccc(N3CCC(NC(=O)c4cccc(C#N)c4)C3)n2)cc1 (stereo not drawn) [GSK1379730A]	0.96
COc1ccc(Nc2nccc(N3CCC(NC(=O)Nc4cccc(C(C)=O)c4)C3)n2)cc1 (stereo not drawn) [GSK1379731A]	0.6491
COc1ccc(Nc2nccc(N3CCC(NC(=O)c4cccc(NC(C)=O)c4)C3)n2)cc1 (stereo not drawn) [GSK1379732A]	1.077
COc1ccc(Nc2nccc(N3CCC(NC(=O)C(C)c4ccc(Cl)cc4)C3)n2)cc1 (stereo not drawn) [GSK1379735A]	0.6825
CCCc1ccc(S(=O)(=O)NC2CCN(c3ccnc(Nc4ccc(OC)cc4)n3)C2)cc1 (stereo not drawn) [GSK1379737A]	0.6293
COc1ccc(Nc2nccc(N3CCC(NC(=O)c4cc5ccccc5s4)C3)n2)cc1 (stereo not drawn) [GSK1379738A]	0.9419
